Holding throughout (assay): MIC, agar dilution in Mueller Hinton Agar
Common to all, as to type: cell-based

The test system of assay [1] is Citrobacter Freundli 3507. As to conditions: culture 3507, MHA, 35° C., 20 hours, read-out: Minimum Inhibitory Concentration. As to the method:
(§1) The compounds of this invention and their respective pharmacologically acceptable salts have antibiotic activity against a variety of gram-negative bacteria including Escherichia coli, Klebsiella pneumoniae, and Pseudomonas aeruginosa. The compounds are useful for treating bacterial infections in animals, including and most preferably humans. Compounds of the invention are tested for in vitro antimicrobial activity using standard testing procedures such as the determination of minimum inhibitory concentration (MIC) by methods described in "Methods for Dilution Antimicrobial Susceptibility Tests for Bacteria That Grow Aerobically" (M7-A) Published December 1985 by the National Committee for Clinical Laboratory Standards, 771 East Lancaster Avenue, Villanova, Pa. 19084. Briefly, MIC values are determined in unsupplemented Mueller Hinton Agar (MHA). The compounds tested are diluted serially into molten MHA at 47 C. The agar is poured into petri dishes and allowed to harden. The various bacteria used for testing are grown overnight on MHA at 35 C. and transferred to Tryptiease Soy Broth (TSB) until a turbidity of 0.5 McFarland standard is obtained. The bacteria are diluted one to twenty in TSB and inoculated on the plates (1 μl using a Steers replicator).

Assay [2] concerns Enterobacter Cloacae 9381. The settings on record: CLOACAE9381, culture 9381, MHA, 35° C., 20 hours, read-out: Minimum Inhibitory Concentration. The protocol:
as §1

Assay [3] has as its system Enterobacter Cloacae 9382. As to conditions: CLOACAE9382, culture 9382, MHA, 35° C., 20 hours, read-out: Minimum Inhibitory Concentration. The protocol:
as §1

The test system of another assay is Escherichia Coli 9379. The settings on record: COLI9379, culture 9379, MHA, 35° C., 20 hours, read-out: Minimum Inhibitory Concentration. The protocol: as §1
A further assay deals with Escherichia Coli 9380. The settings on record: COLI9380, culture 9380, MHA, 35° C., 20 hours, read-out: Minimum Inhibitory Concentration. As to the method: as §1
Another assay has as its system Escherichia Coli 9451. As to conditions: COLI9451, culture 9451, MHA, 35° C., 20 hours, read-out: Minimum Inhibitory Concentration. The protocol:
as §1

The next assay relates to Klebsiella Oxytoca 9383. As to conditions: OXYTOCA9383, culture 9383, MHA, 35° C., 20 hours, read-out: Minimum Inhibitory Concentration. The protocol:
as §1

A further assay deals with Klebsiella Oxytoca 9384. As to conditions: OXYTOCA9384, culture 9384, MHA, 35° C., 20 hours, read-out: Minimum Inhibitory Concentration. As to the method:
as §1

The test system of the next assay is Klebsiella Pneumoniae 58. The settings on record: culture 58, MHA, 35° C., 20 hours, read-out: Minimum Inhibitory Concentration. The protocol:
as §1

For another assay, the system named is Proteus Vulgaris 9679. The settings on record: culture 9679, MHA, 35° C., 20 hours, read-out: Minimum Inhibitory Concentration. As to the method:
as §1

Assay [4] has as its system Pseudomonas Aeruginosa 231. The settings on record: culture 231, MHA, 35° C., 20 hours, read-out: Minimum Inhibitory Concentration. As to the method:
as §1

Assay [5] deals with Pseudomonas Aeruginosa 9191. As to conditions: culture 9191, MHA, 35° C., 20 hours, read-out: Minimum Inhibitory Concentration. The protocol: as §1
Another assay has as its system Serratia Marcescens 6888. The settings on record: culture 6888, MHA, 35° C., 20 hours, read-out: Minimum Inhibitory Concentration. The protocol:
as §1

Assay [6] concerns Staphylococcus Aureus 3665. The settings on record: AUREUS3665, culture 3665, MHA, 35° C., 20 hours, read-out: Minimum Inhibitory Concentration. As to the method:
as §1

In assay [7] the test system is Staphylococcus Aureus 9218. The settings on record: AUREUS9218, culture 9218, MHA, 35° C., 20 hours, read-out: Minimum Inhibitory Concentration. The protocol: as §1
The test system of assay [8] is Staphylococcus Aursus 6685. As to conditions: AURSUS6685, culture 6685, MHA, 35° C., 20 hours, read-out: Minimum Inhibitory Concentration. As to the method: as §1
Assay [9] relates to Streptococcus Faecalis 694. As to conditions: Enterococcus faecalis, culture 694, MHA, 35° C., 20 hours, read-out: Minimum Inhibitory Concentration. The protocol:
as §1

For assay [10], the system named is Streptococcus Pneumoniae 41. As to conditions: culture 41, MHA, 35° C., 20 hours, read-out: Minimum Inhibitory Concentration. The protocol:
as §1

Assay [11] deals with Streptococcus Pyogenes 152. As to conditions: culture 152, MHA, 35° C., 20 hours, read-out: Minimum Inhibitory Concentration. The protocol:
as §1

The structures appear in SMILES notation. Converted amounts (≈) assume the structure as drawn.

This is an account of results in patent US5006650A, “Novel N-1 substituted beta-lactams as antibiotics” (The Upjohn Company, priority 1989, dated 1991).

Consider `CC(C)(ON=C(C(=O)NC1CN(C(=O)NS(=O)(=O)n2ncn(NC(=O)c3cc(=O)c(O)c[nH]3)c2=O)C1=O)c1csc(N)n1)C(=O)O` (centres unmarked) [Compound U-77938], for which the MIC in assay [1] was 0.06 µg/mL (≈ 0.0878 µM); in [2] it was 16 µg/mL (≈ 23.4 µM); in [3], 0.5 µg/mL (≈ 0.731 µM); with Escherichia Coli 9379, more than 0.015 µg/mL; in the assay with Escherichia Coli 9380, more than 0.015 µg/mL; with Escherichia Coli 9451, more than 0.015 µg/mL. Further, the MIC with Klebsiella Oxytoca 9383 came out at 0.125 µg/mL (≈ 0.183 µM); with Klebsiella Oxytoca 9384, 0.06 µg/mL (≈ 0.0878 µM); with Klebsiella Pneumoniae 58 it was 0.25 µg/mL (≈ 0.366 µM); with Proteus Vulgaris 9679 it was 0.03 µg/mL (≈ 0.0439 µM); in assay [4] it was 0.125 µg/mL (≈ 0.183 µM); in assay [5], 0.25 µg/mL (≈ 0.366 µM). Moreover, the MIC in the assay on Serratia Marcescens 6888 was 0.03 µg/mL (≈ 0.0439 µM); in assay [6], more than 128 µg/mL; in assay [7], more than 128 µg/mL; in assay [8] it was more than 128 µg/mL; in assay [9], more than 128 µg/mL; in assay [10], 128 µg/mL (≈ 187 µM). Further, the MIC in assay [11] came out at 16 µg/mL (≈ 23.4 µM).
As for `Nc1nc(C(=NOCC(=O)O)C(=O)N[C@H]2CN(C(=O)NS(=O)(=O)n3ncn(NC(=O)c4cc(=O)c(O)c[nH]4)c3=O)C2=O)cs1` [Compound U-78284], the MIC in assay [1] is 0.06 µg/mL (≈ 0.0915 µM); in assay [2], 16 µg/mL (≈ 24.4 µM); in [3], 0.25 µg/mL (≈ 0.381 µM); in the assay with Escherichia Coli 9379 it was more than 0.008 µg/mL; in the assay with Escherichia Coli 9380, more than 0.008 µg/mL; in the assay with Escherichia Coli 9451, 0.015 µg/mL (≈ 0.0229 µM). The MIC was 0.25 µg/mL (≈ 0.381 µM) with Klebsiella Oxytoca 9383; 0.03 µg/mL (≈ 0.0458 µM) with Klebsiella Oxytoca 9384; 0.25 µg/mL (≈ 0.381 µM) in the assay on Klebsiella Pneumoniae 58; 0.125 µg/mL (≈ 0.191 µM) in the assay with Proteus Vulgaris 9679; 2 µg/mL (≈ 3.05 µM) in assay [4]; 2 µg/mL (≈ 3.05 µM) in assay [5]. The MIC was 0.03 µg/mL (≈ 0.0458 µM) in the assay on Serratia Marcescens 6888; more than 64 µg/mL in [6]; more than 64 µg/mL in assay [7]; more than 64 µg/mL in assay [8]; more than 64 µg/mL in [9]; 64 µg/mL (≈ 97.6 µM) in assay [10]. In addition, the MIC in assay [11] was determined as 32 µg/mL (≈ 48.8 µM).
